# Results reported in ChEMBL document CHEMBL5154795, “Exploring the structure-activity relationships of diphenylurea as an antibacterial scaffold active against methicillin- and vancomycin-resistant Staphylococcus aureus” (Eur J Med Chem, 2022).
# What was measured:
# Staphylococcus aureus [1] = assay: Antibacterial activity against Vancomycin-resistant Staphylococcus aureus 9 incubated for 18 to 20 hrs by broth microdilution method; format: functional; settings: time 18-20 hrs
# Staphylococcus aureus [2] = assay: Antibacterial activity against Vancomycin-resistant Staphylococcus aureus 10 incubated for 18 to 20 hrs by broth microdilution method; format: functional; settings: time 18-20 hrs
# Staphylococcus aureus [3] = assay: Antibacterial activity against Vancomycin-resistant Staphylococcus aureus 12 incubated for 18 to 20 hrs by broth microdilution method; format: functional; settings: time 18-20 hrs
# Staphylococcus aureus [4] = assay: Antibacterial activity against methicillin-resistant Staphylococcus aureus USA400 NRS 123 assessed as time of post-antibiotic effect at 5 times MIC incubated for 2 hrs followed by compound washout and measured every single 1 hr; format: functional
# Staphylococcus aureus [5] = assay: microbe, parasite or virus in culture; settings: 3b
# Staphylococcus aureus [6] = assay: microbe, parasite or virus in culture; settings: 1
# Staphylococcus aureus [7] = assay: microbe, parasite or virus in culture; settings: 2
# Staphylococcus aureus [8] = assay: microbe, parasite or virus in culture; settings: 3a
# Staphylococcus aureus [9] = assay: microbe, parasite or virus in culture; settings: 13
# Staphylococcus aureus [10] = assay: Antibacterial activity against methicillin-sensitive Staphylococcus aureus ATCC 6538 incubated for 18 to 20 hrs by broth microdilution method; format: functional; settings: time 18-20 hrs
# Staphylococcus aureus [11] = assay: Antibacterial activity against methicillin-sensitive Staphylococcus aureus NRS 107 incubated for 18 to 20 hrs by broth microdilution method; format: functional; settings: time 18-20 hrs
# Staphylococcus aureus [12] = assay: Antibacterial activity against methicillin-resistant Staphylococcus aureus NRS 119 incubated for 18 to 20 hrs by broth microdilution method; format: functional; settings: time 18-20 hrs
# Staphylococcus aureus [13] = assay: Antibacterial activity against methicillin-resistant Staphylococcus aureus NRS 123 (USA400) incubated for 18 to 20 hrs by broth microdilution method; format: functional; settings: time 18-20 hrs
# Staphylococcus aureus [14] = assay: Antibacterial activity against methicillin-resistant Staphylococcus aureus NRS 384 (USA300) incubated for 18 to 20 hrs by broth microdilution method; format: functional; settings: time 18-20 hrs
# Staphylococcus aureus [15] = assay: Antibacterial activity against methicillin-resistant Staphylococcus aureus NRS 385 (USA500) incubated for 18 to 20 hrs by broth microdilution method; format: functional; settings: time 18-20 hrs
# Staphylococcus aureus [16] = assay: Antibacterial activity against methicillin-resistant Staphylococcus aureus NRS 386 (USA700) incubated for 18 to 20 hrs by broth microdilution method; format: functional; settings: time 18-20 hrs
# [17] = system: Staphylococcus epidermidis; assay: Antibacterial activity against Staphylococcus epidermidis NRS 101 incubated for 18 to 20 hrs by broth microdilution method; format: functional; settings: time 18-20 hrs
# [18] = Cytotoxicity against human Caco-2 cells assessed as cell viability at upto 128 ug/ml incubated for 24 hrs by MTS assay relative to control; format: toxicity, cell-based; settings: up to 128 µg/mL, read-out: Activity
# [19] = Cytotoxicity against human HaCaT cells assessed as cell viability at 64 ug/ml incubated for 24 hrs by MTS assay relative to control; format: toxicity, cell-based; settings: at 64 µg/mL, read-out: Activity
# Staphylococcus aureus [20] = assay: Antibacterial activity against methicillin-resistant Staphylococcus aureus USA300 incubated for 18 to 20 hrs by broth microdilution method; format: functional; settings: time 18-20 hrs
# Staphylococcus aureus [21] = assay: Induction of drug resistance in methicillin-resistant Staphylococcus aureus USA400 NRS 123 assessed as fold increase in MIC measured after 15 passages by broth microdilution assay; format: functional
# Staphylococcus aureus [22] = assay: Induction of drug resistance in methicillin-resistant Staphylococcus aureus USA400 NRS 123 assessed as fold increase in MIC measured after 7 passages by broth microdilution assay; format: functional
SMILES,MIC (Staphylococcus aureus [1]),MIC (Staphylococcus aureus [2]),MIC (Staphylococcus aureus [3]),Time (Staphylococcus aureus [4]),MIC (Staphylococcus aureus [10]),MIC (Staphylococcus aureus [11]),MIC (Staphylococcus aureus [12]),MIC (Staphylococcus aureus [13]),MIC (Staphylococcus aureus [14]),MIC [17],MIC (Staphylococcus aureus [20]),other results
CN[C@H](CC(C)C)C(=O)N[C@H]1C(=O)N[C@@H](CC(N)=O)C(=O)N[C@H]2C(=O)N[C@H]3C(=O)N[C@H](C(=O)N[C@H](C(=O)O)c4cc(O)cc(O)c4-c4cc3ccc4O)[C@H](O)c3ccc(c(Cl)c3)Oc3cc2cc(c3O[C@@H]2O[C@H](CO)[C@@H](O)[C@H](O)[C@H]2O[C@H]2C[C@](C)(N)[C@H](O)[C@H](C)O2)Oc2ccc(cc2Cl)[C@H]1O [VANCOMYCIN],> 64 µg/mL,64 µg/mL,> 64 µg/mL,3 h,–,–,–,–,–,–,–,MIC (Staphylococcus aureus [5]): 64 µg/mL; MIC (Staphylococcus aureus [6]): 64 µg/mL; MIC (Staphylococcus aureus [7]): 64 µg/mL; MIC (Staphylococcus aureus [8]): 64 µg/mL; MIC (Staphylococcus aureus [9]): > 512 µg/mL
C/C(=N\NC(=N)N)c1ccc(NC(=O)Nc2ccc(/C=C/C3CCCCC3)cc2)cc1,8 µg/mL,8 µg/mL,8 µg/mL,6 h,4 µg/mL,4 µg/mL,4 µg/mL,4 µg/mL,2 µg/mL,8 µg/mL,–,"MIC (Staphylococcus aureus [15]): 8 µg/mL; MIC (Staphylococcus aureus [16]): 8 µg/mL; viability at 24 h [18]: 100%; viability at 24 h, 64 ug/ml [19]: 100%"
C/C(=N\NC(=N)N)c1ccc(NC(=O)Nc2ccc(C=C3CCC3)cc2)cc1,–,–,–,–,–,–,–,–,–,–,4 µg/mL,–
C/C(=N\NC(=N)N)c1ccc(NC(=O)Nc2ccc(-c3ccc4ccccc4c3)cc2)cc1,–,–,–,–,–,–,–,–,–,–,4 µg/mL,–
CC(=O)NC[C@H]1CN(c2ccc(N3CCOCC3)c(F)c2)C(=O)O1 [LINEZOLID],1 µg/mL,1 µg/mL,–,–,1 µg/mL,1 µg/mL,32 µg/mL,1 µg/mL,1 µg/mL,1 µg/mL,–,–
CO[C@H]1/C=C/O[C@@]2(C)Oc3c(C)c(O)c4c(O)c(c(/C=N/N5CCN(C)CC5)c(O)c4c3C2=O)NC(=O)/C(C)=C\C=C\[C@H](C)[C@H](O)[C@@H](C)[C@@H](O)[C@@H](C)[C@H](OC(C)=O)[C@@H]1C,–,–,–,–,–,–,–,–,–,–,–,fold change (FC) (Staphylococcus aureus [21]): > 500000; fold change (FC) (Staphylococcus aureus [22]): 8
